{
  "source": "patent US12357699B2",
  "about": "“B-cell immunotherapy in cancer treatment” (AKAMARA THERAPEUTICS, INC., priority 2018, dated 2025)",
  "key": {"[1]": {"test_system": "4T1 cells", "assay": "4T1 tumor growth in B cell-deficient mice (Jh−/−)", "assay_type": "in vivo", "details": "4T1 tumors", "procedure": "(§1) 4T1 cells were subcutaneously implanted in the mice strains mentioned and when tumors reached an average volume of 100 mm^3, they were divided into two groups. One group was kept as control and the other treated with IO-125 and tumor volume in all the animals were recorded."}, "[2]": {"test_system": "4T1 cells", "assay": "Tumor rechallenge (immune memory study), re-implantation of 4T1 cells", "assay_type": "in vivo, Balb/c mice", "procedure": "4T1 cells were subcutaneously implanted in Balb/c mice to generate tumors. When tumors reached an average volume of 100 mm^3, they were treated with IO-125 (Group 1). Two groups of Balb/c mice (non-tumor bearing) were either treated with IO-125 or saline (designated Group 2 and 3 respectively; FIG. 3A). Immune memory cells are poised to rapidly expand and induce effector functions upon recurrence, while existing in a functionally quiescent state. To verify this hypothesis, we examined immune memory in IO-125 treated tumors."}, "[3]": {"test_system": "LLC cells", "assay": "Combination of PD1 immune checkpoint inhibitor and IO-125 in immunocompetent murine NSCLC tumor model (LLC cells s.c. in C57/BL6 mice)", "assay_type": "in vivo", "details": "syngeneic lung cancer (LLC) bearing animals, two cycles", "procedure": "The combination of a PD1 immune checkpoint inhibitor and IO-125 was evaluated in an immunocompetent murine NSCLS tumor model. The murine NSCLC tumor model was generated by subcutaneously implanting LLC cells in C57/BL6 mice. Treatment with saline (control), IO-125, immune check point inhibitor (anti-PD1 antibody, Biolegend) or combinatorial therapy (IO-125 and anti-PD1 antibody) was initiated when average tumor volume in the animals reached 100 mm^3, through i.v. administration of compounds. A schematic representation of the treatment regimen is depicted in FIG. 1A.\n(§2) In contrast, 45% of the animals underwent complete tumor regression when the two drugs were combined. These observations illustrate that combinations of IO-125 with immune checkpoint inhibitor(s) augment tumor regression as compared to monotherapies."}, "[4]": {"test_system": "IGKC", "assay": "Semi-quantitative PCR of immune activating and suppressive genes in 4T1 tumors", "assay_type": "in vivo, Balb/c mice", "details": "4T1 tumors harvested after one cycle, 20 mgPt/kg", "source_text": "(§3) The efficacy of IO-125 was examined in the murine triple negative breast cancer (TNBC) tumor model (4T1). 4T1 cells were subcutaneously implanted in Balb/c mice to generate tumors and treated with IO-125 or saline (control), when tumors reached an average volume of 100 mm^3. The dose administered for IO-125 was 20 mgPt/kg, with a regimen of b5d. Following one cycle of treatment, tumors were harvested and a portion of the tumor from control and IO-125 treated group was used for total RNA isolation and subsequent evaluation of immune activating and immune suppressive genes (Denkert et al., Clin Oncol. 2015; 33(9):983-91) by semi-quantitative PCR. IO-125 treatment was continued for an additional cycle, with recording of tumor volume and examination of tumors for regression."}, "[5]": {"test_system": "genes involved in B cell differentiation and TLR activation", "assay": "Relative mRNA expression in splenic B cells isolated from treated mice", "assay_type": "in vivo, Balb/c mice", "details": "tumor bearing treated mice (Group 1)", "procedure": "Splenic B cells were isolated from Group 1 and Group 2 mice, described in Example 3. Spleen was harvested from mice (n=3) and minced into small pieces in RPMI-1640 basal media. The pieces were placed on top of a 40 mesh membrane and crushed with the back of a syringe and the single cell suspension was collected onto a 50 mL tube. The single cell suspension was washed twice with PBS to remove debris by centrifuging at 2000 rpm. Splenocytes were counted using haemocytometer and 100 million splenocytes were resuspended in 1 mL of Isolation buffer (2% FBS, […] in DPBS) and transferred to a 5 ml Polystyrene tube. The B cells were isolated from splenocytes using the EasySep Stem Cell B cell isolation kit as per manufacturers protocol. One part of the isolated B cells was used for RNA isolation, followed by relative mRNA expression levels of genes involved in B cell differentiation and TLR activation were evaluated; while the second part was used for immunodetection of specific proteins, following the manufacturer's protocol."}, "[6]": {"test_system": "4T1 cells", "assay": "4T1 tumor growth in mice lacking functional B cells and T cells (SCID)", "assay_type": "in vivo", "details": "4T1 tumors", "procedure": "as §1"}, "[7]": {"test_system": "IGKC", "assay": "Immune biomarker expression (molecular immunophenotyping, immunohistochemistry of FFPE sections) in LLC tumors", "assay_type": "in vivo, C57/BL6 mice", "source_text": "as §2\nSubsequently, tumors were harvested and a portion fixed in formalin."}, "[8]": {"test_system": "B cell differentiation and TLR activation markers", "assay": "Relative mRNA expression in naive splenic B cells cultured with conditioned media (TCM) from treated 4T1 cells", "assay_type": "cell-based, mice", "details": "splenic B cells 48 hours in TCM from 4T1 cells treated 6 hours plus 42 hours", "procedure": "4T1 cells were seeded in cell culture dishes in IMDM media containing 10% FBS. The cells were treated with blank supramolecule (Vehicle) and IO-125 when they reached 60% confluence. Following a transient treatment of 6 hours, the media was removed and supplemented with fresh culture media and cells were incubated for additional 42 hours. Following treatment, the conditioned media from 4T1 cells (TCM) was collected for each treatment and filtered through 0.2 micron PES filters to obtain TCM free of cell debris. The harvested TCMs were used immediately for conditioning of B cells, isolated from naïve mice splenocytes using the EasySep Stem Cell B cell isolation kit as per manufacturers protocol. The B cells were incubated with conditioned media and harvested after 48 hours of incubation. RNA was isolated from the B cells and used for relative mRNA expression level evaluation of genes involved in B cell differentiation and TLR activation."}, "[9]": {"test_system": "4T1 cells", "assay": "Murine triple negative breast cancer (TNBC) tumor model (4T1 s.c. in Balb/c mice)", "assay_type": "in vivo", "details": "4T1 tumor-bearing Balb/c mice, 20 mgPt/kg, two cycles", "source_text": "as §3"}},
  "data": [
    {"smiles": "CC(C)CCCC(C)C1CCC2C3CC=C4CC(OCCN(CC(=O)[O-])CC(=O)[O][Pt+]5[NH]C6CCCCC6[NH]5)CCC4(C)C3CCC12C", "note": "(stereo not drawn) [IO-125]", "values": [
      {"measurement": "tumor ablation in Jh−/− mice (FIG. 4C)", "setting": "[1]", "value": "Tumor ablation did not occur"},
      {"measurement": "tumor growth after re-implantation of cancer cells, Group 1", "setting": "[2]; animals that had previously undergone tumor regression with treatment", "value": "no tumor growth was observed"},
      {"measurement": "tumor growth after implantation of 4T1 cells, Group 2", "setting": "[2]; non-tumor bearing Balb/c mice pre-treated, compared with saline treated mice (Group 3)", "value": "led to the growth of tumors"},
      {"measurement": "tumor growth curves (FIG. 2C)", "setting": "[3]", "value": "significant tumor growth inhibition but no regression"},
      {"measurement": "IGKC mRNA levels in tumors (FIG. 2B)", "setting": "[4]", "value": "significant increase in IGKC mRNA levels"},
      {"measurement": "expression of TLRs and CD80 in splenic B cells", "setting": "[5]", "value": "elevated expression of TLRs and CD80"},
      {"measurement": "IGKC mRNA levels in splenic B cells (FIG. 5B)", "setting": "[5]; normalized to Group 2", "value": "significant increase in IGKC mRNA levels"},
      {"measurement": "tumor ablation in SCID mice (FIG. 4D)", "setting": "[6]", "value": "Tumor ablation did not occur"},
      {"measurement": "IGKC levels (FIG. 2D)", "setting": "[7]; LLC tumors of treated animals, relative expression of immune biomarkers", "value": "increase in IGKC levels"},
      {"measurement": "immunodetection of B220 and IGKC in tumor sections (FIG. 2E)", "setting": "[7]; treated versus control tumors", "value": "significantly increased expression of IGKC"},
      {"measurement": "B cell differentiation markers and TLR activation markers, relative mRNA (FIG. 4B)", "setting": "[8]", "value": "substantially increased"},
      {"measurement": "tumor growth curve (FIG. 2A)", "setting": "[9]", "value": "complete regression of tumors"}
    ]}
  ]
}
